# Earlier results in patent publication US4390710A, “Catalyst system for manufacturing p-chlorophenyl-N-methyl carbamate” (PPG Industries, Inc., priority 1981, dated 1983).
# Conditions: organic herbicides such as isopropyl-N-(3-chlorophenyl) carbamate and isopropyl-N-phenyl carbamate
smiles,measurement,value
CNC(=O)Oc1ccc(Cl)cc1 [p-chlorophenyl-N-methyl carbamate],extending the soil life of organic herbicides,capable of extending the soil life of many organic herbicides
